In patent publication US9272038B2, “Wound care formulation” (Innovation Ulster Limited, priority 2007, dated 2016):
Counter-ions that a name gives are not always drawn.

Assays:
Format in all cases: physicochemical
[1] = Comparison of polyol affinity for borate ions by direct titrimetry; conditions: polyol added to 100.0 ml of 5% w/v Borax solution; calculated from pH with Equation 3
Method: The following polyols were used in this investigation; maltitol, dulcitol, D-mannitol, D-sorbitol, xylitol, meso-erythritol, 1,2-propanediol, glycerol. Additionally, the affect of propan-2-ol was also investigated. The affinity of each polyol for borate was estimated using direct titrimetry and by analysis of gel characteristics. In the former method, incremental additions (1.0 ml) of a 0.5 M solution of polyol was added to 100.0 ml of 5% w/v Borax solution and the pH recorded. […] 3; 10^(pH-pKa)[H3BO3]0═[B(OH)4^−]f (3) where, [H3BO3]0 is the concentration of boric acid, [B(OH)4^−]f is the concentration of free borate ions and pKa is the pKa of boric acid (derived from the initial pH of the 5% w/v borax solution). […] These assumptions are consistent with work of other researchers^27,28.

[2] = Texture profile analysis (hardness) of PVA-borate hydrogels; conditions: for Hardness (N): 10% w/w PVA and 2.5% w/w borax hydrogel with 0.1 M polyol, n=4; for effect on hardness compared to the hydrogel containing no polyol: hydrogel loaded with 0.1 Molar polyol
Method: Evaluation of the mechanical properties of PVA-borate hydrogels was performed using a TA-XT2 Texture Analyzer (Stable Micro Systems, […], UK) in texture profile analysis (TPA) mode. Formulations were placed in poly(propylene) containers (44 mm diameter×55 mm depth) (Sarstedt©, Wexford, Republic of Ireland) with any air bubbles in the gels removed upon standing at ambient temperature (>6.0 h) prior to investigation. The tubular probe (10.0 mm in diameter and 150.0 mm in length) was compressed twice into each sample to a depth of 15.0 mm at a rate of 10.0 mm s^-1, with a 15.0 s delay between compressions. Four replicate measurements were made in each case at ambient temperature. Hardness and compressibility, which have previously been used to define the mechanical properties of hydrogels were derived from the force-time plots produced by the TPA analysis^30. Those skilled in the art of TPA, will be familiar with production of said force-time plots and derivation of hardness and compressibility data from aforementioned data. Hardness, the force required to achieve a given deformation, was determined by the force maximum of the first positive curve of the force-time plot^30. Compressibility, the work required to deform the product during the first compression of the probe was determined by the area under the first positive curve of the force-time plot^30. Additionally, the effect of the polyols on the concentration of free borate ions within the hydrogel was estimated using changes in the pH of the gel after addition of a defined polyol. Standard hydrogels of 10% w/w PVA and 2.5% borax were produced containing each polyol at a concentration of 0.1 Molar. The pH of each gel was measured upon equilibration, with each measurement performed for four samples (n=4). Similarly, the changes in gel hardness arising from variations in free borate induced by polyol addition were determined using texture profile analysis, as described above. As before, four replicate measurements were made in each case at ambient temperature (n=4).

[3] = pH measurement of PVA-borate hydrogels (spear-tip electrode); conditions: 10% w/w PVA and 2.5% w/w borax hydrogel, n=4
Method: PVA-borate hydrogels (10% w/w PVA and 2.5% w/w borax) were prepared by combining equal volumes of separate stock solutions (20% w/w PVA and 5% w/w borax) prepared in de-ionised water. A homogenous gel was formed upon heating the mixture to 80° C. for approximately two hours, with periodic stirring. Gels were stored for 48 hours at room temperature to allow complete gelation prior to evaluation. Excipients, such as lidocaine HCL and D-mannitol, were added to the sodium tetraborate solution prior to addition to the PVA solution. The pH of gel formulations were recorded using a Sensorex® spear-tip electrode ([…], Sensys Ltd, Stevenage), which is designed to penetrate and measure the pH of semi-solid systems. Measurements of pH in borax solutions (5% w/v), following successive additions of D-mannitol (5.0×10^-3 mole), were recorded using the same electrode apparatus. Additionally, the effect of the polyols on the concentration of free borate ions within the hydrogel was estimated using changes in the pH of the gel after addition of a defined polyol. Standard hydrogels of 10% w/w PVA and 2.5% borax were produced containing each polyol at a concentration of 0.1 Molar. The pH of each gel was measured upon equilibration, with each measurement performed for four samples (n=4). Similarly, the changes in gel hardness arising from variations in free borate induced by polyol addition were determined using texture profile analysis, as described above. As before, four replicate measurements were made in each case at ambient temperature (n=4).

[4] = pHp of lidocaine hydrochloride within PVA-Borate hydrogels, derived experimentally
Method: […]. The determination of the pHp in the aqueous environment is determined using the equation (1), whilst the determination of the pHp within the gel environment is derived experimentally. […].

Compound	% reduction in free borate/0.0005 moles [1]	Hardness (N) [2]	effect on hardness compared to the hydrogel containing no polyol [2]	pH of hydrogel with 0.1 M polyol [3]	pHp (Gel) ([4]; 1% w/v lidocaine HCl in PVA-Borate hydrogel)	pHp (Gel) ([4]; 2% w/v lidocaine HCl in PVA-Borate hydrogel)	pHp (Gel) ([4]; 3% w/v lidocaine HCl in PVA-Borate hydrogel)	pHp (Gel) ([4]; 4% w/v lidocaine HCl in PVA-Borate hydrogel, hydrochloride)	pHp (Gel) ([4]; 4% w/v lidocaine HCl in PVA-Borate hydrogel, listed as lidocaine hydrochloride monohydrate, hydrochloride)
CC(O)CO (centres unmarked) [1,2-propandiol]	2.08 ± 0.78%	14.10 ± 0.5 N	no affect on the hardness of the hydrogel	8.39 ± 0.02					
OC[C@@H](O)[C@H](O)[C@@H](O)CO [Xylitol]	4.97 ± 1.21%	5.18 ± 0.31 N		7.95 ± 0.038					
OC[C@@H](O)[C@@H](O)CO [Meso-erythritol]	4.97 ± 1.17%	9.01 ± 0.45 N		8.10 ± 0.01					
OC[C@@H](O)[C@@H](O)[C@H](O)[C@H](O)CO [D-mannitol]	7.47 ± 1.10%	4.07 ± 0.25 N		7.74 ± 0.023					
Malititol	7.25 ± 1.59%	2.79 ± 0.14 N		7.63 ± 0.019					
OC[C@@H](O)[C@H](O)[C@H](O)[C@@H](O)CO [Dulitol]	7.46 ± 1.41%	3.87 ± 0.38 N		7.67 ± 0.015					
OC[C@@H](O)[C@@H](O)[C@H](O)[C@@H](O)CO [D-sorbitol]	6.87 ± 1.25%	4.37 ± 0.31 N		7.79 ± 0.02					
CC(C)O [Propan-2-ol]	0.51 ± 1.09%		no affect on the hardness of the hydrogel	8.393 +/− 0.012					
OCC(O)CO [Glycerol]	3.36 ± 1.34%			8.17 +/− 0.022					
CCN(CC)CC(=O)Nc1c(C)cccc1C [Lidocaine HCl, lidocaine hydrochloride]					≧8.15	≧7.75	≧7.45	≧7.26	> 7.26
